Test results from patent publication US12195427B2, “MASP-2 inhibitors and methods of use” (priority 2018, dated 2025).
Counter-ions that a name gives are not always drawn.

Biological target: MASP-2 CCP2-SP (Homo sapiens (Human), UniProt O00187)
Test: MASP-2 co-crystallization, X-ray crystallography and structure analysis (H-bonds, van der Waals contacts);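 as to Ligand-pharmacophore element distance, pharmacophore element C2: distance from averaged pharmacophore element to bound ligand; missing value means element absent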;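 as to Ligand-pharmacophore element distance, pharmacophore element C3: distance from averaged pharmacophore element to bound ligand; missing value means element absent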;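 as to Ligand-pharmacophore element distance, pharmacophore element C4: distance from averaged pharmacophore element to bound ligand; missing value means element absent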;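 as to Ligand-pharmacophore element distance, pharmacophore element C5: distance from averaged pharmacophore element to bound ligand; missing value means element absent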
Design: van der Waals contact distance, MASP-2 HIS 483 atom CD2 / van der Waals contact distance, MASP-2 HIS 483 atom NE2 / van der Waals contact distance, SER 654 C to compound atom / van der Waals contact distance, SER 654 O to compound atom / van der Waals contact distance, TRP 655 C to compound atom / van der Waals contact distance, MASP-2 GLY 528 atom CA / van der Waals contact distance TRP 655 atom CZ3 / van der Waals contact distance TRP 655 atom N / van der Waals contact distance TRP 655 atom CE3 / van der Waals contact distance GLY 656 atom C / van der Waals contact distance GLY 656 atom CA / van der Waals contact distance GLY 656 atom O / van der Waals contact distance, MASP-2 TYR 607 atom CD1 / van der Waals contact distance, MASP-2 PRO 606 atom O / d(C3,CA1) / d(CA1,N1)2 / d(H4,O1) / d(H4,O2) / d(O1,O2) / d(CA1,O2) / d(CA6,O1) / d(CA6,O2) / d(CA1,C5) / d(O2,H3) / d(N2,C2) / d(CA5,N2) / d(N2,C4) / d(N2,C6) / d(N2,CA3) / d(N2,O3) / d(O4,H2): unit not given beside the values
Conditions: for Ligand-pharmacophore element distance, pharmacophore element C2 / Ligand-pharmacophore element distance, pharmacophore element C3 / Ligand-pharmacophore element distance, pharmacophore element C4 / Ligand-pharmacophore element distance, pharmacophore element C5 / Ligand-pharmacophore element distance, pharmacophore element C6 / Ligand-pharmacophore element distance, pharmacophore element C7 / Ligand-pharmacophore element distance, pharmacophore element CA1 / Ligand-pharmacophore element distance, pharmacophore element CA2 / Ligand-pharmacophore element distance, pharmacophore element CA3 / Ligand-pharmacophore element distance, pharmacophore element CA4 / Ligand-pharmacophore element distance, pharmacophore element CA5 / Ligand-pharmacophore element distance, pharmacophore element CA6: Table A4-1; for d(CA1,C5) / d(CA1,O1) / d(CA1,O2) / d(CA1,O4) / d(H4,O1) / d(H4,O2) / d(O1,O2) / d(O4,H2): Table A5-1 pharmacophore: distance between elements, S2/S1 region; for d(N2,C2) / d(N2,CA2) / d(O2,H3) / d(O2,N2): Table A5-2 pharmacophore distance, S3/S4 region; for a(C5, CA1, O1) / a(CA1, O1, O2) / a(CA1, O4, H2) / a(O1, CA1, O4) / a(O1, O2, H4): Table A6-1 pharmacophore angle; for a(O1, O2, H3) / a(O1, O2, N2) / a(O2, N2, C2) / a(O2, N2, CA2): Table A6-2 pharmacophore angle; for Pharmacophore torsion angle a(C5, CA1, O1, H4) / Pharmacophore torsion angle a(H4, O1, O2, H3) / Pharmacophore torsion angle a(H4, O1, O2, N2) / Pharmacophore torsion angle a(O1, H4, O2, CA1) / Pharmacophore torsion angle a(O1, O2, N2, C2): Table A7-1; for Pharmacophore torsion angle a(C5, CA1, O1, H4) / Pharmacophore torsion angle a(H4, O1, O2, H3) / Pharmacophore torsion angle a(H4, O1, O2, N2) / Pharmacophore torsion angle a(O1, H4, O2, CA1) / Pharmacophore torsion angle a(O1, O2, N2, C2) / Pharmacophore torsion angle a(O1, O2, N2, CA2): between pharmacophore elements of the bound compound; for Pharmacophore torsion angle a(O1, O2, N2, CA2): Table A7-2; for H-bond distance to MASP-2 ARG 630 atom NH1 (second bond): ARG 630 NH1; for van der Waals contact distance, MASP-2 amino acid atom to compound atom: ARG 630
From the text: This example illustrates the preparation of recombinant MASP-2 protein, based on UniProt O00187, human mannan-binding lectin serine protease 2. Expression constructs for human MASP-2 CCP2-SP and CCP2-SP-6HIS were generated for recombinant expression in E. coli cells.
Typically, crystallization hits were obtained by screening against […] 96-well crystallization reagent kits (GRAS6, GRAS2, Hampton Research; MORPHEUS, Molecular Dimensions; Wizard 1&2 Cryo, Rigaku Reagents) and crystal growth was inspected by optical microscopy. Crystals were used directly or further optimized for X-ray diffraction. Crystals were captured with cryogenic loops and dipped into liquid nitrogen directly or cryoprotected with a 20% glycerol in crystallization formulation before flash-cooling in liquid nitrogen.
Thereafter crystals are transferred once or twice for soaking within the crystallization solution containing the MASP-2 inhibitor.
Crystals were diffracted with synchrotron X-rays of […] and X-ray diffraction datasets were collected at beamlines SSRL BL9-2, BL14-1, BL12-2 as well as ALS sector 5 using Dectris Pilatus and Eiger detectors. Structures were determined by molecular replacement using portions of the structure 1Q3X as search models and partially refined with Buster 2.10.2 or Refmac 5.8. […] When multiple ligand poses were observed, for instance arising from multiple molecules in the asymmetric unit or refined dual poses within the same molecule, only one pose was selected and analyzed.
LigPlot+ calls these ‘nonbonded contacts’ or ‘hydrophobic contacts’. Despite the name, there are atom pairings that include possible H-bonds. Thus, in some instances, the Table A2 also contains H-bond interactions.

[1] = Table A8-6, nearest protein atom in cell to the left

Chain of MASP-2 CCP2-SP (O00187 445-686): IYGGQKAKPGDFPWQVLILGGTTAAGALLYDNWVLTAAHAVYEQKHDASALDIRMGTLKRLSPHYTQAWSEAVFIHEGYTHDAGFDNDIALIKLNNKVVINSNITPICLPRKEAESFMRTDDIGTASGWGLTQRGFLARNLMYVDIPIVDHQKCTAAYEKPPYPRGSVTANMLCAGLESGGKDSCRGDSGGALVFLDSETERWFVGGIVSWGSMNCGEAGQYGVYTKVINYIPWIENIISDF
Chain of MASP-2 CCP2-SP (O00187 364-432 partner): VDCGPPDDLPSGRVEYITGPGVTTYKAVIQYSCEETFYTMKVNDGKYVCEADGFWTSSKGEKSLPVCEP

C[C@H](NC(=O)[C@H]1C[C@@H](c2ccccc2)CCN1)C(=O)NCc1cc(Cl)ccc1O.Cl [1078_7]
Ligand-pharmacophore element distance, pharmacophore element C2: 0.64
Ligand-pharmacophore element distance, pharmacophore element C3: 0
Ligand-pharmacophore element distance, pharmacophore element C4: 0
Ligand-pharmacophore element distance, pharmacophore element C5: 0.61
Ligand-pharmacophore element distance, pharmacophore element C6: 0
Ligand-pharmacophore element distance, pharmacophore element C7: 0
Ligand-pharmacophore element distance, pharmacophore element CA1: 1.69
Ligand-pharmacophore element distance, pharmacophore element CA2: 0.55
Ligand-pharmacophore element distance, pharmacophore element CA3: 0
Ligand-pharmacophore element distance, pharmacophore element CA4: 0
Ligand-pharmacophore element distance, pharmacophore element CA5: 0
Ligand-pharmacophore element distance, pharmacophore element CA6: 0
d(CA1,C5): 3.14
d(CA1,O1): 4.83
d(CA1,O2): 4.83
d(CA1,O4): 2.77
d(H4,O1): 2.08
d(H4,O2): 2.49
d(O1,O2): 3.35
d(O4,H2): 0.97
d(N2,C2): 1.47
d(N2,CA2): 5.74
d(O2,H3): 3.26
d(O2,N2): 3.04
a(C5, CA1, O1): 158.86
a(CA1, O1, O2): 110.36
a(CA1, O4, H2): 126.10
a(O1, CA1, O4): 67.29
a(O1, O2, H4): 86.28
a(O1, O2, H3): 137.32
a(O1, O2, N2): 140.50
a(O2, N2, C2): 114.22
a(O2, N2, CA2): 151.33
Pharmacophore torsion angle a(C5, CA1, O1, H4): 30.48
Pharmacophore torsion angle a(H4, O1, O2, H3): −121.10
Pharmacophore torsion angle a(H4, O1, O2, N2): −116.26
Pharmacophore torsion angle a(O1, H4, O2, CA1): −57.85
Pharmacophore torsion angle a(O1, O2, N2, C2): 144.61
Pharmacophore torsion angle a(O1, O2, N2, CA2): 143.84

C[C@H](NC(=O)[C@H]1C[C@@H](c2ccccc2)CCN1)C(=O)NCc1cc(Cl)ccc1O [compound 1078]
H-bond distance to MASP-2 ARG 630 atom NH1 (second bond) (Table A1 (H-Bonds)): 3.25
H-bond distance to MASP-2 ARG 630 atom NH1 (Table A1 (H-Bonds), ARG 630 NH1, first column): 2.92
H-bond distance to MASP-2 GLY 656 atom N (Table A1 (H-Bonds), GLY 656 N): 3.14
H-bond distance to MASP-2 SER 654 atom O (Table A1 (H-Bonds), SER 654 O): 2.66
van der Waals contact distance, MASP-2 HIS 483 atom CD2 (Table A2-1): 3.35
van der Waals contact distance, MASP-2 HIS 483 atom NE2 (Table A2-1): 3.28
van der Waals contact distance, MASP-2 amino acid atom to compound atom (Table A2-9, AA atoms CG, CZ): 3.78
van der Waals contact distance, VAL 653 CG1 to compound atom (Table A2-11): 3.49

C[C@H](NC(=O)[C@H]1C[C@@H](c2ccccc2)CCN1)C(=O)NCc1cc(Cl)ccc1O.Cl [1078_6]
Ligand-pharmacophore element distance, pharmacophore element C2: 1.09
Ligand-pharmacophore element distance, pharmacophore element C3: 0
Ligand-pharmacophore element distance, pharmacophore element C4: 0
Ligand-pharmacophore element distance, pharmacophore element C5: 0.48
Ligand-pharmacophore element distance, pharmacophore element C6: 0
Ligand-pharmacophore element distance, pharmacophore element C7: 0
Ligand-pharmacophore element distance, pharmacophore element CA1: 1.31
Ligand-pharmacophore element distance, pharmacophore element CA2: 0.65
Ligand-pharmacophore element distance, pharmacophore element CA3: 0
Ligand-pharmacophore element distance, pharmacophore element CA4: 0
Ligand-pharmacophore element distance, pharmacophore element CA5: 0
Ligand-pharmacophore element distance, pharmacophore element CA6: 0
d(CA1,C5): 3.11
d(CA1,O1): 5.90
d(CA1,O4): 2.75
d(H4,O1): 2.75
d(O4,H2): 0.98
d(N2,C2): 1.49
d(N2,CA2): 5.49
a(C5, CA1, O1): 152.72
a(CA1, O4, H2): 126.69
a(O1, CA1, O4): 67.49
Pharmacophore torsion angle a(C5, CA1, O1, H4): −22.50

C[C@H](NC(=O)[C@H](N)CCc1ccccc1)C(=O)NCc1cc(Cl)ccc1O [compound 1031, (R)-2-Amino-N—((S)-1-((5-chloro-2-hydroxybenzyl)amino)-1-oxopropan-2-yl)-4-phenylbutanamide Hydrochloride]
H-bond distance to MASP-2 ARG 630 atom NH1 (second bond) (Table A1 (H-Bonds)): 2.83
H-bond distance to MASP-2 GLY 656 atom O (Table A1 (H-Bonds), GLY 656 O): 2.67
van der Waals contact distance, MASP-2 HIS 483 atom CD2 (Table A2-1): 3.57
van der Waals contact distance, MASP-2 HIS 483 atom CE1 (Table A2-1): 3.62
van der Waals contact distance, MASP-2 HIS 483 atom NE2 (Table A2-1): 3.17
van der Waals contact distance, MASP-2 PHE 529 atom CE2 (Table A2-3): 3.75
van der Waals contact distance, MASP-2 TYR 607 atom CD1 (Table A2-4): 3.85
van der Waals contact distance, MASP-2 amino acid atom to compound atom (Table A2-9 second part, AA atoms N, NE, NH1, Hydrochloride): 3.34
van der Waals contact distance, VAL 653 CG1 to compound atom (Table A2-11): 3.58
van der Waals contact distance, SER 654 C to compound atom (Table A2-11, Hydrochloride): 3.56
van der Waals contact distance, TRP 655 C to compound atom (Table A2-12, Hydrochloride): 3.26
van der Waals contact distance, TRP 655 CA to compound atom (Table A2-12, Hydrochloride): 3.64
van der Waals contact distance GLY 656 atom C (Table A2-13, MASP-2 GLY 656 C): 3.61
van der Waals contact distance TRP 655 atom CE3 (Table A2-13, MASP-2 TRP 655 CE3, compound atom in line below): 3.49
van der Waals contact distance TRP 655 atom N (Table A2-13, MASP-2 TRP 655 N): 3.28

C[C@H](NC(=O)[C@H](N)C1Cc2ccccc2C1)C(=O)NCc1ccc2c(N)nccc2c1.Cl.Cl [1088_B]
Ligand-pharmacophore element distance, pharmacophore element C2: 1.93
Ligand-pharmacophore element distance, pharmacophore element C3: 0
Ligand-pharmacophore element distance, pharmacophore element C4: 0
Ligand-pharmacophore element distance, pharmacophore element C5: 0
Ligand-pharmacophore element distance, pharmacophore element C6: 0
Ligand-pharmacophore element distance, pharmacophore element C7: 0
Ligand-pharmacophore element distance, pharmacophore element CA1: 0.62
Ligand-pharmacophore element distance, pharmacophore element CA2: 0.2
Ligand-pharmacophore element distance, pharmacophore element CA3: 0
Ligand-pharmacophore element distance, pharmacophore element CA4: 0
Ligand-pharmacophore element distance, pharmacophore element CA5: 0
Ligand-pharmacophore element distance, pharmacophore element CA6: 0
d(CA1,O1): 5.22
d(CA1,O2): 4.78
d(H4,O1): 6.73
d(H4,O2): 6.06
d(O1,O2): 3.02
d(N2,C2): 3.90
d(N2,CA2): 6.13
d(O2,H3): 3.82
d(O2,N2): 2.68
a(CA1, O1, O2): 99.27
a(O1, O2, H4): 153.40
a(O1, O2, H3): 144.52
a(O1, O2, N2): 135.22
a(O2, N2, C2): 140.65
a(O2, N2, CA2): 154.54
Pharmacophore torsion angle a(H4, O1, O2, H3): 45.99
Pharmacophore torsion angle a(H4, O1, O2, N2): 121.15
Pharmacophore torsion angle a(O1, H4, O2, CA1): −63.34
Pharmacophore torsion angle a(O1, O2, N2, C2): 129.99
Pharmacophore torsion angle a(O1, O2, N2, CA2): 134.51
Pharmacophore protein distance to MET_658 (first MET_658 column) (Table A8-6, 6th residue column, nearest protein atom in cell to the left): 3.04
Pharmacophore protein distance to MET_658 (second MET_658 column) (Table A8-6, 9th residue column, nearest protein atom in cell to the left): 3.12
Pharmacophore protein distance to GLY_528 [1]: 3.66
Pharmacophore protein distance to PHE_529 [1]: 2.75
Pharmacophore protein distance to PRO_608 [1]: 3.74
Pharmacophore protein distance to SER_611 [1]: 2.71
Pharmacophore protein distance to TRP_655 (Table A8-6, pharmacophore elements C6, CA3, O3, H1, nearest protein atom in cell to the left): 3.75
